Data from patent US20210369583A1, “COMPOSITIONS FOR PROVIDING SKIN CARE BENEFITS AND METHODS OF USE” (Danisco US Inc., priority 2018, published 2021).
Several values for one entry are separate records, joined by “and”; a condition that tells them apart may be missing. Identical values can stand only once.

Tests used:
Format in all cases: cell-based
[1] = system: Normal Human Epidermal Keratinocytes (NHEK); test: Protection of keratinocytes under UV-irradiated conditions (UVB 250 mJ/cm2), flow cytometry
Experimental: (§1) The type of cells use for this study were Normal Human Epidermal Keratinocytes (NHEK), Bioalternatives reference K341 used at the 3rd passage. The culture conditions were: 37° C., 5% CO2. The culture medium is referred to as “keratinocyte-SFM” supplemented with Epidermal Growth Factor (EGF) 0.25 ng/ml, Pituitary extract (PE) 25 μg/ml, Gentamycin 25 μg/ml. The assay medium was “keratinocyte-SFM” supplemented with gentamycin 25 μg/ml.
(§2) Keratinocytes (NHEK) were seeded in 24-well plates and cultured for 24 hours in culture medium. The medium was then replaced by assay medium containing or not (control) the single osmolyte or the combination of osmolytes C1 or C2 and cells were pre-incubated for 24 hours.
For UV-irradiated conditions, the medium was then removed and replaced by assay medium and the cells were irradiated with UVB at 250 mJ/cm2 (+UVA at 1.6 J/cm2). The lamp used was a SOL500 Sun simulator equipped with an H2 filter (Dr. Hole, AG). A non-irradiated control condition was performed in parallel. After irradiation, the medium was removed and replaced by assay medium containing or not (control) the single osmolyte or the combination of osmolytes (C1 or C2) and the cells were incubated for 48 hours.
(§3) At the end of incubation, culture medium was removed and the cells were rinsed with a PBS solution. The cells were then detached using trypsin treatment and transferred into tubes. After several washes in PBS/BSA 0.2%, the cells were labeled with a propidium iodide (PI) solution (staining of dead cells).
(§4) Cell populations were then analyzed for number (total number of event per well during a fixed time), size (FSC), granularity (SSC) and viability parameters (% PI-positive cells, equivalent to % dead cells) by flow cytometry using BD FACSVerse™ flow cytometer. • Acquisition 1 represents the number of events (=number of cells) passing one by one in front of the cytometer laser over a fixed time. It doesn't distinct dead or living cells at this step. By subtracting the number of events (in hyperosmotic or irradiated condition) from the total number of events in normoosmotic conditions, it is possible to calculate the number of cells that have been lysed due to the stress conditions. • Acquisition 2, represents, on a fixed number of events, 1) the detection of the light scattered when the cells are crossing the laser, FSC-A, from which can be calculated the cell size, 2) the detection of the cells stained by Propidium Iodide (dead cells) from which can be calculated the % of viable cells.

[2] = system: Reconstructed Human Epidermis (RHE); test: Caffein diffusion test on Reconstituted Human Epidermis (RHE); settings: for caffein diffusion through RHE: systemic treatment
Experimental: By measuring the amount of […] […] The epidermis used was a Reconstructed Human Epidermis, called “RHE”, 0-day-old, batch no 01015-444, placed in culture conditions 37° C., 5% CO2. The assay medium was the Bioalternatives maintenance medium. RHE at Day 0 (when placed at the air/liquid interface) were placed in assay medium containing or not (control) the compounds, the combination or the reference (vitamin C at 200 μg/ml). This is referred to as a systemic application, to be differentiated from a topical application. RHE were then incubated for 7 days with treatment renewal at Day 3 and Day 5. All experimental conditions were performed in n=3. At the end of incubation (Day 7), radioactive […] ([^14[…] applied on the surface of each epidermis. The radioactivity contained in subnatants was measured by liquid scintillation after 30 minutes, 1, 2, 3, 4, 5, 6, 7 and 8 hours of incubation. The barrier function is calculated according to the below formula:

[3] = system: Normal Human Epidermal Keratinocytes (NHEK); test: Osmoprotective effect on keratinocytes under hyper-osmotic conditions (NaCl 150 mM), flow cytometry
Experimental: as §1, §2
For hyper-osmotic conditions, the medium was removed and replaced by assay medium containing NaCl at 150 mM and containing the single osmolyte or the combination of osmolytes (C1 or C2). The cells were then incubated for 48 hours. In parallel, a normo-osmotic control (no osmotic stress control) was performed.
as §3, §4

[4] = system: Normal Human Epidermal Keratinocytes (NHEK); test: Protection of keratinocytes under UV-irradiated and hyper-osmotic conditions, flow cytometry; settings: NaCl 150 mM + UVB 250 mj/cm^2
Experimental: as §1, §2
For UV-irradiated and hyper-osmotic conditions, the medium was then removed and replaced by assay medium and the cells were irradiated with UVB at 250 mJ/cm2 (+UVA at 1.6 J/cm2). The lamp used was a SOL500 Sun simulator equipped with an H2 filter (Dr. Höle, AG). After irradiation, the medium was removed and replaced by assay medium containing NaCl at 150 mM (hyperosmotic conditions) and containing the single osmolyte or the combination of osmolytes (C1 or C2) and the cells were then incubated for 48 hours. In parallel, a non-irradiated and normo-osmotic control was performed.
as §3, §4

O=C(O)[C@@H]1CCCN1 [L-Proline]
viability at 3000 µg/mL ([1]; Homo sapiens, NHEK, light or radiation study, UVB 250 mj/cm^2, 3 mg/ml, read-out: Cell viability, % hyperosmotic control): 103%
effect on cells submitted to UVB irradiation ([1]; UVB 250 mJ/cm^2 alone or in combination with hyperosmotic stress): no clear effect
Cell size, % hyperosmotic control ([1]; UVB 250 mj/cm^2, 3 mg/ml): 110%
Mean % viable cells = 100-% PI-positive cells = 100-% dead cells ([1]; UVB 250 mj/cm^2, 3 mg/ml): 86.4%
Mean cell size FSC-A (au) ([1]; UVB 250 mj/cm^2, 3 mg/ml): 100519 au
Cell size, % hyperosmotic control ([1]; UVB 250 mj/cm^2, 10 mg/ml): 110%
Mean cell size FSC-A (au) ([1]; UVB 250 mj/cm^2, 10 mg/ml): 101243 au
Barrier function % Control ([2]; 0.5 hrs, 3 mg/ml): 96%
Mean [14C]-caffein (cpm) ([2]; 0.5 hrs, 3 mg/ml): 20720 cpm
[14C]-caffein % Control ([2]; 0.5 hrs, 3 mg/ml): 105%
Barrier function % Control ([2]; 0.5 hrs, 10 mg/ml): 98%
Mean [14C]-caffein (cpm) ([2]; 0.5 hrs, 10 mg/ml): 20193 cpm
[14C]-caffein % Control ([2]; 0.5 hrs, 10 mg/ml): 103%
Barrier function % Control ([2]; 1 hrs, 3 mg/ml): 97%
Mean [14C]-caffein (cpm) ([2]; 1 hrs, 3 mg/ml): 47352 cpm
[14C]-caffein % Control ([2]; 1 hrs, 3 mg/ml): 104%
Barrier function % Control ([2]; 1 hrs, 10 mg/ml): 100%
Mean [14C]-caffein (cpm) ([2]; 1 hrs, 10 mg/ml): 45495 cpm
[14C]-caffein % Control ([2]; 1 hrs, 10 mg/ml): 100%
Barrier function % Control ([2]; 2 hrs, 3 mg/ml): 94%
Mean [14C]-caffein (cpm) ([2]; 2 hrs, 3 mg/ml): 106026 cpm
[14C]-caffein % Control ([2]; 2 hrs, 3 mg/ml): 106%
Barrier function % Control ([2]; 2 hrs, 10 mg/ml): 98%
Mean [14C]-caffein (cpm) ([2]; 2 hrs, 10 mg/ml): 102027 cpm
[14C]-caffein % Control ([2]; 2 hrs, 10 mg/ml): 102%
Barrier function % Control ([2]; 3 hrs, 3 mg/ml): 93%
Mean [14C]-caffein (cpm) ([2]; 3 hrs, 3 mg/ml): 147545 cpm
[14C]-caffein % Control ([2]; 3 hrs, 3 mg/ml): 108%
Barrier function % Control ([2]; 3 hrs, 10 mg/ml): 98%
Mean [14C]-caffein (cpm) ([2]; 3 hrs, 10 mg/ml): 140203 cpm
[14C]-caffein % Control ([2]; 3 hrs, 10 mg/ml): 102%
Barrier function % Control ([2]; 4 hrs, 3 mg/ml): 93%
Mean [14C]-caffein (cpm) ([2]; 4 hrs, 3 mg/ml): 169001 cpm
[14C]-caffein % Control ([2]; 4 hrs, 3 mg/ml): 107%
Barrier function % Control ([2]; 4 hrs, 10 mg/ml): 97%
Mean [14C]-caffein (cpm) ([2]; 4 hrs, 10 mg/ml): 162571 cpm
[14C]-caffein % Control ([2]; 4 hrs, 10 mg/ml): 103%
Barrier function % Control ([2]; 5 hrs, 3 mg/ml): 93%
Mean [14C]-caffein (cpm) ([2]; 5 hrs, 3 mg/ml): 184911 cpm
[14C]-caffein % Control ([2]; 5 hrs, 3 mg/ml): 107%
Barrier function % Control ([2]; 5 hrs, 10 mg/ml): 98%
Mean [14C]-caffein (cpm) ([2]; 5 hrs, 10 mg/ml): 176461 cpm
[14C]-caffein % Control ([2]; 5 hrs, 10 mg/ml): 102%
Barrier function % Control ([2]; 6 hrs, 3 mg/ml): 94%
Mean [14C]-caffein (cpm) ([2]; 6 hrs, 3 mg/ml): 190819 cpm
[14C]-caffein % Control ([2]; 6 hrs, 3 mg/ml): 106%
Barrier function % Control ([2]; 6 hrs, 10 mg/ml): 99%
Mean [14C]-caffein (cpm) ([2]; 6 hrs, 10 mg/ml): 181674 cpm
[14C]-caffein % Control ([2]; 6 hrs, 10 mg/ml): 101%
Barrier function % Control ([2]; 7 hrs, 3 mg/ml): 94%
Mean [14C]-caffein (cpm) ([2]; 7 hrs, 3 mg/ml): 199859 cpm
[14C]-caffein % Control ([2]; 7 hrs, 3 mg/ml): 106%
Barrier function % Control ([2]; 7 hrs, 10 mg/ml): 99%
Mean [14C]-caffein (cpm) ([2]; 7 hrs, 10 mg/ml): 190843 cpm
[14C]-caffein % Control ([2]; 7 hrs, 10 mg/ml): 101%
Barrier function % Control ([2]; 8 hrs, 3 mg/ml): 100% and 99%
Barrier function (% L-Proline 3 mg/ml) ([2]; 8 hrs, 3 mg/ml): 104%
Barrier function (% L-Proline 10 mg/ml) ([2]; 8 hrs, 3 mg/ml): 100%
Mean [14C]-caffein (cpm) ([2]; 8 hrs, 3 mg/ml): 193655 cpm and 194941 cpm
[14C]-caffein % Control ([2]; 8 hrs, 3 mg/ml): 100% and 101%
Barrier function % Control ([2]; 8 hrs, 10 mg/ml): 95%
Mean [14C]-caffein (cpm) ([2]; 8 hrs, 10 mg/ml): 203011 cpm
[14C]-caffein % Control ([2]; 8 hrs, 10 mg/ml): 105%
caffein diffusion through RHE ([2]; 3 mg/ml): did not decrease caffein diffusion
caffein diffusion through RHE ([2]; 10 mg/ml): did not decrease caffein diffusion
% cell size difference compared to control hyperosmotic stress condition under 150 mM NaCl ([3]; 3 mg/ml total osmolytes): +4%
% cell size difference compared to control hyperosmotic stress condition under 150 mM NaCl ([3]; 10 mg/ml total osmolytes): +13%
viability at 3000 µg/mL ([3]; Homo sapiens, NHEK, NaCl 150 mM 48 h, 3 mg/ml, read-out: Cell viability, % hyperosmotic control): 143%
Lysed cells, % normo-osmotic control (% cell lysis) ([3]; NaCl 150 mM 48 h, 3 mg/ml): 67.2%
Lysed cells: Mean number of event per well normo-osmotic control − Mean number of event per well hyperosmotic conditions ([3]; NaCl 150 mM 48 h, 3 mg/ml): 73197
Mean % viable cells = 100-% PI-positive cells = 100-% dead cells ([3]; NaCl 150 mM 48 h, 3 mg/ml): 69.6%
Mean cell size FSC-A (au) ([3]; NaCl 150 mM 48 h, 3 mg/ml): 68417 au
Total number of events per well, % hyperosmotic control ([3]; NaCl 150 mM 48 h, 3 mg/ml): 130%
Total number of events per well, Mean (au) ([3]; NaCl 150 mM 48 h, 3 mg/ml): 18676 au
Cell size, % hyperosmotic control ([3]; NaCl 150 mM 48 h, 10 mg/ml): 113%
Lysed cells, % normo-osmotic control (% cell lysis) ([3]; NaCl 150 mM 48 h, 10 mg/ml): 41.7% and 67.2%
Lysed cells: Mean number of event per well normo-osmotic control − Mean number of event per well hyperosmotic conditions ([3]; NaCl 150 mM 48 h, 10 mg/ml): 56995
Mean cell size FSC-A (au) ([3]; NaCl 150 mM 48 h, 10 mg/ml): 74581 au
Total number of events per well, % hyperosmotic control ([3]; NaCl 150 mM 48 h, 10 mg/ml): 243%
Total number of events per well, Mean (au) ([3]; NaCl 150 mM 48 h, 10 mg/ml): 34878 au
Cell size, % hyperosmotic control ([4]; 3 mg/ml): 102%
Mean cell size FSC-A (au) ([4]; 3 mg/ml): 69601 au
Cell size, % hyperosmotic control ([4]; 10 mg/ml): 100%
Mean cell size FSC-A (au) ([4]; 10 mg/ml): 68169 au
